Source: patent US11351130B2, “Prevention and reversal of inflammation induced DNA damage” (Indiana University Research and Technology Corporation, priority 2017, dated 2022)

Columns and labels:
[1] = tested on: sensory neurons in culture; assay type: cell-based, rat
Experimental: (§1) Primary cultures of sensory neurons were harvested and maintained as previously described (Vasko et al., 2005). Briefly, adult male Sprague-Dawley rats (150-175 g; Harlan, Indianapolis, Ind.) were euthanized by CO2 asphyxiation and dorsal root ganglia (DRG) dissected from all spinal levels, transferred to into a collagenase solution (1 mg/ml), incubated for 1 hour at 37° C., then dissociated by mechanical agitation. Approximately 30,000 cells or 60,000 cells were plated into each well of 12-well or 6-well culture plates, respectively. All culture dishes were precoated with poly-D-lysine and laminin. Cells were maintained in F-12 media supplemented with 10% horse serum, 2 mM glutamine, 100 μg/ml Normocin™, 50 μg/ml penicillin, 50 μg/ml streptomycin, 50 μM 5-fluoro-2′-deoxyuridine (Invitrogen), 150 μM uridine, and 30 ng/ml of NGF in 3% CO2 at 37° C. Growth medium was changed every other day. Experiments were performed after cells were maintained in culture for 12-14 days.
For release experiments, cell cultures were washed with HEPES buffer consisting of (in mM) 25 HEPES, 135 NaCl, 3.5 KCl, 2.5 CaCl2, 1 MgCl2, 3.3 D-glucose, and 0.1% bovine serum albumin, pH 7.4 and maintained at 37° C. They then were incubated for successive 10-minute intervals with 0.4 ml of HEPES buffer alone (basal release), with buffer containing 30 nM capsaicin, then with buffer alone (to assess return to basal release). After each incubation, the buffer was removed and the amount of immunoreactive calcitonin-gene related peptide (CGRP) in each sample was measured using radioimmunoassay (RIA) as previously described (Chen et al., 1996). At the end of the release protocol, CGRP is extracted from the cultures and total content measured using RIA.

Ref-1/APE1 = molecular target: T1, Ref-1/APE1 (Homo sapiens, UniProt P27695); experiment: Ref-1/APE1 endonuclease activity in tumor cells; assay type: cell-based
T1 construct: endogenous in cells

[2] = P450 metabolism analysis using human microsomes; assay type: in vitro ADME; conditions: human
Experimental: PK studies were performed in the IU Simon Cancer Center Clinical Pharmacology Analytical Core (CPAC), as previously described for E3330 (Fishel et al., 2011) and standards for the compounds used. P450 metabolism studies using human microsomes were also performed in CPAC directed by Dr. David Jones.

[3] = tested on: sensory neuronal cultures; experiment: Neuronal cell viability (trypan blue exclusion); assay type: cell-based
Experimental: as §1
Sensory neuronal culture trypan blue exclusion analysis was performed as previously described (Vasko et al., 2011). Cells were detached by adding a 0.05% trypsin-EDTA solution and media to each well. An equal volume of 0.4% (w/v) trypan blue in PBS was added to the cell suspension and the numbers of living cells (i.e., those that exclude the dye) were counted under a phase contrast microscope using a hemacytometer. Percent survival was calculated as the percent of live cells divided by the total cell number (including dead and live cells).

T1 sequence (P27695 whole entry): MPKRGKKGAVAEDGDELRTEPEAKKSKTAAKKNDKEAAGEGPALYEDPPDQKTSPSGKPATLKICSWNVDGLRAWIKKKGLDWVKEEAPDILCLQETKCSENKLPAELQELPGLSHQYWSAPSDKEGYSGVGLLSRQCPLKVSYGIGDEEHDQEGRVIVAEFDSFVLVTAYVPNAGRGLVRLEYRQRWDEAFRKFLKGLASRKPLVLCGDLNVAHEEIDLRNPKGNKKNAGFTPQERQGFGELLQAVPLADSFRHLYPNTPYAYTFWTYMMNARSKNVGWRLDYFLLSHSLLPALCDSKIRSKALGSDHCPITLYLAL

CCCCCCCCC/C(=C\C1=C(C)C(=O)C(OC)=C(OC)C1=O)C(=O)O [APX3330]
effect on cisplatin-induced reduction in capsaicin-evoked CGRP release ([1]; 20 μM for 48 hours prior to and throughout exposure to 10 μM cisplatin): abolished the reduction in release
basal (resting) release or release of CGRP stimulated by 30 nM capsaicin, drug alone ([1]; 72 hours, E3330 20 μM, APX2009 10 or 20 μM, compared to untreated cells): no significant change
Ref-1/APE1 endonuclease activity (Ref-1/APE1): not observed in tumor cells
half-life [2]: 20 min
effect on cisplatin-induced cell death ([3]; 20 μM for 48 hours prior to and throughout the cisplatin treatment (24 hours)): blocked
cell death / cell viability, drug alone ([3]; 24 hours, E3330 10, 20 or 40 μM, APX2009 various concentrations): no significant cell death
